Measured values: PubChem BioAssay (NCI)
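Briefly, cells in 96-well plates were exposed to five compound concentrations for 48 h, and endpoints were estimated by linear interpolation. GI50 is the concentration that inhibits growth by half. The concentration for full growth arrest is given as TGI.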

What was measured:
Assay in all cases: NCI tumour cell line growth inhibition, 48 h
KM12 colon = test system: KM12 colon
RXF 393 renal = test system: RXF 393 renal
MCF7 breast = test system: MCF7 breast
CCRF-CEM leukemia = test system: CCRF-CEM leukemia
IGROV1 ovarian = test system: IGROV1 ovarian
U251 CNS = test system: U251 CNS
RPMI-8226 leukemia = test system: RPMI-8226 leukemia
UO-31 renal = test system: UO-31 renal
PC-3 prostate = test system: PC-3 prostate
BT-549 breast = test system: BT-549 breast
OVCAR-4 ovarian = test system: OVCAR-4 ovarian
SK-OV-3 ovarian = test system: SK-OV-3 ovarian
UACC-62 melanoma = test system: UACC-62 melanoma

Row | Compound | TGI (KM12 colon) | TGI (RXF 393 renal) | TGI (MCF7 breast) | TGI (CCRF-CEM leukemia) | TGI (IGROV1 ovarian) | TGI (U251 CNS) | TGI (RPMI-8226 leukemia) | TGI (UO-31 renal) | TGI (PC-3 prostate) | TGI (BT-549 breast) | TGI (OVCAR-4 ovarian) | TGI (SK-OV-3 ovarian) | TGI (UACC-62 melanoma) | GI50 (KM12 colon)
1 | CC(=O)OC/C=C\Cn1nc(Br)c(=O)[nH]c1=O | 30.1 µM | 27.1 µM | 28.5 µM | 24.5 µM | 29.4 µM | 22.6 µM | 72.7 µM | 31.2 µM | 26 µM | 22.2 µM |  |  |  | 
2 | CC1(C)Cc2c(C#N)c(N)c3c(c2CO1)C(=O)OC3=O | > 100 µM | > 100 µM |  | > 100 µM | > 100 µM | > 100 µM | > 100 µM | > 100 µM |  |  | > 100 µM | > 100 µM | > 100 µM | 
3 | Cc1[nH]nc(N)c1C(N)=O | > 100 µM | 56.1 µM |  | > 100 µM | > 100 µM |  | > 100 µM | > 100 µM |  |  | > 100 µM | > 100 µM | > 100 µM | 
4 | COC(=O)c1c(O)ccc2c1c1c(n2Cc2ccc(Cl)cc2Cl)C(=O)c2ccccc2C1=O | 15.9 µM | 19.7 µM | 15.9 µM | 29.9 µM | 26.9 µM | 24.6 µM | 13.5 µM | 22.8 µM | 21.3 µM | 26.1 µM | 11.6 µM | 27.6 µM |  | 
5 | COc1cccc(/C=N/[N-]C(N)=O)c1[O-].[Ni+2].[OH3+].c1ccc(-c2ccccn2)nc1 | > 100 µM | > 100 µM |  | > 100 µM | > 100 µM | > 100 µM | > 100 µM | > 100 µM |  |  | > 100 µM | > 100 µM | > 100 µM | 
6 | COc1cc(S(=O)(=O)Nc2ccc(-c3csc(N)n3)cc2)ccc1Cl |  | 33.8 µM | 29.9 µM | 53.5 µM |  |  | 65.1 µM | 37.2 µM | 29.7 µM | 43.1 µM | 27.9 µM |  | 30 µM | 
7 | O=C(N/N=C/c1cc(Cl)cc(Cl)c1[O-])c1ccccc1O.O=C(N/N=C/c1cc(Cl)cc(Cl)c1[O-])c1ccccc1O.[Zn+2] | 17.9 µM | 11.6 µM |  |  | 6.82 µM | 5.93 µM |  | 10.6 µM |  |  | 2.4 µM | 11.8 µM | 1.84 µM | 0.956 µM
8 | OC1CCOc2ccccc21 (configuration not stated) | > 100 µM | > 100 µM |  | > 100 µM | > 100 µM | > 100 µM | > 100 µM | > 100 µM |  |  | > 100 µM | > 100 µM | > 100 µM | 
9 | CC(=O)NC(c1nc2cc(C)c(C)cc2[nH]1)c1nc2cc(C)c(C)cc2[nH]1 | 34.2 µM | 84.8 µM | > 100 µM | 37 µM | 58.9 µM | 57.9 µM | 46.4 µM | 53.2 µM | 94.7 µM | 61.6 µM | 72.8 µM | 71.9 µM | > 100 µM | 
10 | S=C1CC(c2ccccc2)Sc2ccccc2N1 (configuration not stated) | > 100 µM | 75.8 µM | > 100 µM | > 100 µM | > 100 µM | > 100 µM | > 100 µM | > 100 µM | > 100 µM | > 100 µM | > 100 µM | > 100 µM | > 100 µM | 
11 | NC(=O)CCC(N=C(N)c1csc(C2OC(CO)C(O)C2O)n1)C(=O)O (configuration not stated) | > 100 µM | > 100 µM |  | > 100 µM | > 100 µM | > 100 µM | > 100 µM |  |  |  | > 100 µM | > 100 µM | > 100 µM | 
12 | CCOC(=O)c1c(Cl)nc2ccccc2c1N=[N+]=[N-] | 31.5 µM | > 100 µM |  | > 100 µM | 46.9 µM | 62.4 µM | > 100 µM | 36.5 µM | 68.5 µM | 30.7 µM | 31.7 µM | > 100 µM |  | 
13 | COc1ccc(/C(O)=C/c2nc3cccnc3nc2/C=C(\O)c2ccc(OC)cc2)cc1 | > 100 µM |  | 50.1 µM | > 100 µM | 25.4 µM | 37.7 µM | > 100 µM | 71.2 µM | > 100 µM | 53.5 µM | 18.3 µM | 31.7 µM | 44.7 µM | 
